Test results reported in patent US6291247A, “Methods of screening for factors that disrupt neurotrophin conformation and reduce neurotrophin biological activity” (priority 1996, dated 2001).

Key:
p75^NTR and TrkA [1] = molecular target: T1, p75^NTR and TrkA (Mus musculus, UniProt P01139); assay: Binding of 125I-NGF to PC12 cells (p75NTR + TrkA); design: species or system rat; settings: 120 min; for Total Binding to PC12 cells: 125I-NGF; for steady-state specific binding of 125I-NGF (0.5 nM) to p75NTR and TrkA: ± SEM
T1 construct: these cells express both NGF receptor types; endogenous in cells; host or cells: PC12 rat pheochromocytoma cells
Method: (§1) PC12 cells were grown in RPMI with 10% heat inactivated donor horse serum and 5% fetal calf serum. […] The tubes were incubated for 2 hr at 4° C. and 100 μl aliquots (providing triplicate data points for each sample) were transferred to 400 μl microcentrifuges containing 200 μl of 10% glycerol in HKR. Tubes were centrifuged for 2 minutes at 5,000 rpm, the tip containing the cell pellet cut off and radioactivity bound to the cells was determined.

p75^NTR and TrkA [2] = tested on: T2, p75^NTR and TrkA; assay: Binding of 125I-NGF to PC12 cells (p75NTR + TrkA); design: species or system rat; settings: for Inhibition of 125I-NGF binding: 100 μM, CaEDTA together with Zn2+
T2 construct: these cells express both NGF receptor types; endogenous in cells; host or cells: PC12 rat pheochromocytoma cells
Method: as §1

NGF = molecular target: T3, NGF (Mus musculus, UniProt P01139); assay: NGF protomer crosslinking with BS3 (NGF conformation), metal ions; assay type: biochemical; settings: for NGF Protomer Conformation (active/inactive): 100 μM; for NGF monomer crosslinking by BS3: 0.1 nM 125I-NGF, CaEDTA together with Zn2+
T3 construct: homodimer
Method: For crosslinking NGF […], 0.4 mM BS^3 was added to the mixture and incubated for 30 minutes at 25° C. […] For CD studies, NGF (50 μg/ml) was dissolved in 50 mM Tris-HCl buffer and spectra recorded using a computer controlled Jasco J-600 spectropolarimeter. Samples were acquired in the absence or presence of Zn^2+ (100 μM) at 22° C. in a 2 mm quartz cell averaged over eight scans. Modification of His residues by DEPC was carried out as previously described, where the molar excess of DEPC added and the extent of reaction was determined by evaluating the loss of binding activity of the modified product.

PC12 cells [3] = assay: NGF-dependent survival of PC12 cells; assay type: cell-based, rat; settings: for Antagonism of NGF-dependent survival: high (1 nM) or low (50 pM) NGF; for NGF-mediated survival of PC12 cells: serum-free, CaEDTA together with Zn2+
Method: (§2) Effects of divalent ions on NGF mediated survival and toxicity was evaluated using a colorimetric assay for the lysosomal enzyme acid phosphatase to determine cell number (Connolly, D. T., Knight, M. B., Harakas, N. K, Wittwer, A. J. & Feder, J. Determination of the number of endothelial cells in culture using an acid phosphatase assay. Anal. Biochem. 152, 136-140 (1986); Ueda, Y., Walsh, E., Nakanishi H. & Yoshida, K. A. colorometric assay method for the evaluation of neurotrophic activity in vitro. Neurosci. Lett. 165, 203-207 (1994)). […] To evaluate toxicity, the cells were seeded and maintained without NGF in RPMI with 10% heat inactivated donor horse serum and 5% fetal calf serum in the presence of additives. Loss in viable cell number was determined and expressed as a percent of control. NGF rescues PC12 cells from cell death in serum-free medium(Greene, L. A. Nerve growth factor prevents the death and stimulates neuronal differentiation of clonal PC12 pheochromocytoma cells in serum-free medium. J. Cell Biol. 78, 747-755 (1978)). NGF-dependent survival was assessed by harvesting PC12 cells in balanced salt solution followed with washing by 4 cycles of suspension and centrifugation in serum-free RPMI prior to seeding in 96 well plates. After incubation with additives, medium was removed from the wells and cells washed once with 200 μl PBS. Buffer containing 0.1M sodium acetate pH 5.5, 0.1% Triton X-100 and 10 mM p-nitrophenyl phosphate (Sigma 104 phosphatase substrate) was added to each well (100 μl). Plates were incubated at 37° C. for 3 hours. The reaction was stopped by the addition of 10 μl/well of 1N sodium hydroxide and the color development measured at 405 nm using a microplate reader. The relationship between cell number and enzyme activity was linear over the range 1000 to 15,000 cells.
(§3) To explore the ability of other transition metals to influence the biological activities of NGF, a series of cations known to mimic in certain respects the binding of zinc to proteins were tested. […] For this reason these ions were not tested in NGF- dependant growth phenomena. […] As these studies appeared to indicate potentially complex results upon metal ions binding to NGF, a receptor crosslinking system where specific receptor types could be identified was utilized.

PC12 cells [4] = assay: Toxicity to PC12 cells; assay type: cell-based, rat; settings: for Toxicity (PC12 cell viability): 100 μM; for Toxicity to PC12 cells: in presence of serum, up to 100 μM
Method: as §2, §3

p75^NTR /TrkA [5] = molecular target: p75^NTR /TrkA (Mus musculus, UniProt P01139); assay: Receptor crosslinking of 125I-NGF with transition metal ions (receptor selectivity); assay type: binding; settings: 100 μM
Method: as §3

p75^NTR /TrkA [6] = assay: as above; assay type: binding
Method: as §3

TrkA = tested on: T4, TrkA; assay: Binding of 125I-NGF to TrkA on PC12 cells (p75NTR blocked with BDNF); design: species or system rat; settings: 100 μM CaEDTA with 100 μM Zn2+; 40 nM BDNF; ± SEM; 120 min
T4 construct: Receptor cross-linking studies were performed on PC12 rat pheochromocytoma cells; endogenous in cells; host or cells: PC12 rat pheochromocytoma cells (ATCC CRL 1721)
Method: as §1

TrkA receptor = assay: NGF-dependent TrkA phosphorylation in PC12 cells, metal ions; assay type: cell-based, rat; settings: for NGF-induced TrkA phosphorylation: 100 μM, PC12 cells
Method: Zn^2+ and/or other additives were allowed to equilibrate with NGF for 2 hours at 4° C. prior to addition of cells. PC12 cells were used at 10^6 cells/ml and incubated with 40 pM NGF for 15 minutes at 37° C. At the conclusion of the reaction, cells were washed, lysed in TBS containing 10% glycerol, 1% Triton X-100, 1 mM PMSF, 10 μg/ml aprotinin, 1 μg/ml leupeptin and 500 μM orthovanadate (lysis buffer, 10^8 cells/ml). The cellular debris was removed by centrifugation and the soluble proteins incubated with an anti-TrkA cytoplasmic domain antibody. Antibody complexes were isolated by incubating with immobilized protein G (Pierce Ultralink; 70 μl of a 50% slurry) for 2 hours at 4° C. The solid phase was washed extensively with lysis buffer and the pellet dissolved in SDS sample buffer. Proteins were resolved using 6% SDS PAGE and Western analysis performed with anti-phosphotyrosine 4G10 (UBI) visualized with ECL (Amersham).

DRG neurons = assay: NGF-mediated neurite outgrowth of DRG neurons, metal ions; assay type: cell-based, chick; settings: 100 μM
Method: Dissosiated cells enriched for sensory neurons were prepared from ED8 chick DRG as described (Dostaler, S. M. et al. Characterization of a distinctive motif of the low molecular weight neurotrophin receptor that modulates NGF-mediated neurite growth. Eur. J. Neurosci. 8, 870-879 (1996)). Neurons were seeded at a density of 800-1000 cells/well in Ham's F-12 containing 5% FCS and NGF at 10 pM into wells of Terasaki plates treated with polyysine. The cells were incubated with the indicated additives at 37° C. in a 5% CO2 atmosphere. The cells on the entire lower horizontal surface of the well were scored for neurite growth at 18-20 hours using an inverted microscope fitted with phase contrast optics. A neurite was scored if its caliber from the origin to terminal was constant and its length was equal to or greater than 1.5 cell body diameters. Neurite growth was corrected for background (no NGF).

T3 sequence (P01139 122-239): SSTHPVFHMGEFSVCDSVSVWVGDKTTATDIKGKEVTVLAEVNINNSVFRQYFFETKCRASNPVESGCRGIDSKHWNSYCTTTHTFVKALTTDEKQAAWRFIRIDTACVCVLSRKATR
T2 sequence (P01139 122-239): as above
T1 sequence (P01139 122-239): as above
Sequence of p75^NTR /TrkA (Mus musculus, UniProt P01139) (P01139 122-239): as above
Sequence of p75^NTR /TrkA (Mus musculus, UniProt P01139) (P07174 30-425 partner): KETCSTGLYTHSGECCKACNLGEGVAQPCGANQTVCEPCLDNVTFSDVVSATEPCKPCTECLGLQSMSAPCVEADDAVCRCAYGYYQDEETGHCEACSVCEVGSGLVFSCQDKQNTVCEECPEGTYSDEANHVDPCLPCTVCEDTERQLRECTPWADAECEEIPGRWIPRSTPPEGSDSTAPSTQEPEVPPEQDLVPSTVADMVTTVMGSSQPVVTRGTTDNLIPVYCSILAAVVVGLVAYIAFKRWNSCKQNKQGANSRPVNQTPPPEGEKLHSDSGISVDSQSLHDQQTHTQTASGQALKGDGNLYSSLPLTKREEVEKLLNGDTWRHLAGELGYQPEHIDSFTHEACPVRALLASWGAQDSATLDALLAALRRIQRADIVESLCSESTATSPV
Sequence of p75^NTR /TrkA (Mus musculus, UniProt P01139) (P35739 33-799 partner): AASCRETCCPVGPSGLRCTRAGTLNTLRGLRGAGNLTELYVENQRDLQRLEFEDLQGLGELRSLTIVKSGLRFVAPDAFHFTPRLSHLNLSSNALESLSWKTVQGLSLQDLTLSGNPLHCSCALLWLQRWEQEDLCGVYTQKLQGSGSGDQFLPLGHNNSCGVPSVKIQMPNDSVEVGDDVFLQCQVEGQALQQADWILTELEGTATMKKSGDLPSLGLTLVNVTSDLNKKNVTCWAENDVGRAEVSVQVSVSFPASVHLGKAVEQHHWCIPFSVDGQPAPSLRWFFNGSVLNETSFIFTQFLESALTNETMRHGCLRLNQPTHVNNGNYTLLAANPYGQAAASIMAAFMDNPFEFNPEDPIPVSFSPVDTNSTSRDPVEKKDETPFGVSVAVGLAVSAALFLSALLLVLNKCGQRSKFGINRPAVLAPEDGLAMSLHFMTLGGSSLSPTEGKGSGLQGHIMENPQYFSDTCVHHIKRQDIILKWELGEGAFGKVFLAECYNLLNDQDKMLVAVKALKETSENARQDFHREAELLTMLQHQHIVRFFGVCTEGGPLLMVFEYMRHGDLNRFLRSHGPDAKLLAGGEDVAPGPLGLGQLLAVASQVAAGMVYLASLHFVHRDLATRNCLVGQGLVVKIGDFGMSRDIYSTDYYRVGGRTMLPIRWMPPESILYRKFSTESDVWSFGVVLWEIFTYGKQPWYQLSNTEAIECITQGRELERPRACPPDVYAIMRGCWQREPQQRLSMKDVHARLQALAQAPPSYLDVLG
Sequence of p75^NTR /TrkA (P01139 122-239): as the sequence (P01139 122-239) above
Sequence of p75^NTR /TrkA (P07174 30-425 partner): as the sequence (P07174 30-425 partner) above
Sequence of p75^NTR /TrkA (P35739 33-799 partner): as the sequence (P35739 33-799 partner) above
T4 sequence (P01139 122-239): as the sequence (P01139 122-239) above

SMILES	Total Binding to PC12 cells (p75^NTR and TrkA [1]; 100 μM)	Prevention of 125I-NGF binding to PC12 cells (p75^NTR and TrkA [2])	NGF Protomer Conformation (active/inactive) (NGF)	Antagonism of NGF-dependent survival (PC12 cells [3])	Toxicity (PC12 cell viability) (PC12 cells [4])	Receptor Selectivity (p75NTR/TrkA) (p75^NTR /TrkA [5])	Blocking of NGF binding to TrkA and p75NTR in receptor crosslinking (p75^NTR /TrkA [6])	Inhibition of 125I-NGF binding (p75^NTR and TrkA [2])	NGF monomer crosslinking by BS3 (NGF)	NGF-mediated survival of PC12 cells (PC12 cells [3]; 100 μM)	NGF-induced TrkA phosphorylation (TrkA receptor)	steady-state specific binding of 125I-NGF (0.5 nM) to p75NTR and TrkA (p75^NTR and TrkA [1]; 100 μM)	NGF-induced neurite extension (DRG neurons)	Toxicity to PC12 cells (PC12 cells [4])	further results
[Au+3] [Au^3+]	107 ± 4 % control	did not show appreciable inhibition	active	ability to antagonize the NGF-dependant survival	102 ± 13 % control	TrkA only	selective for blocking the binding of NGF to TrkA but did not prevent the binding of NGF to p75^NTR								Survival @ 50 pM NGF (PC12 cells [3]; rat, pc12 cells, 100 µM): 0.1 ± 9 % control; Survival @ 1 nM NGF (PC12 cells [3]; rat, pc12 cells, 100 µM): -8 ± 5 % control
O=C([O-])CN(CCN(CC(=O)[O-])CC(=O)[O-])CC(=O)[O-].[Ca+2].[Na+].[Na+] [CaEDTA, reference compound]								Inhibitory effects of Zn^2+ could also be prevented	prevented the Zn^2+ effects	reversed	Neither Ca^2+, Mg^2+ nor CaEDTA had a significant effect				steady-state specific binding of 125I-NGF (0.5 nM) to p75NTR and TrkA (p75^NTR and TrkA [1]; 100 μM CaEDTA with 100 μM Zn2+): 78 ± 19 % Control; steady-state specific binding of 125I-NGF (0.5 nM) to TrkA (TrkA): 87 ± 13 % Control; Reversal of Zn2+ inhibition of TrkA phosphorylation (TrkA receptor; CaEDTA 100 μM with Zn2+ 100 μM): reversed by CaEDTA
[Ca+2] [Ca^2+, reference compound]								neither Ca^2+ nor Mg^2+ displayed significant inhibition	no effect on crosslinking efficiency	no effect	not detected	91 ± 7 % Control	no effect	not toxic	
[Mg+2] [Mg^2+, reference compound]								neither Ca^2+ nor Mg^2+ displayed significant inhibition	no effect on crosslinking efficiency	no effect	not detected	88 ± 13 % Control	no effect	not toxic	
[Ni+2] [Ni^2+]	69 ± 18 % control	did not show appreciable inhibition	inactive	ability to antagonize the NGF-dependant survival	100 ± 19 % control	TrkA only	selective for blocking the binding of NGF to TrkA but did not prevent the binding of NGF to p75^NTR								Effect on conformation of NGF in protomer crosslinking (NGF): did not appear to have an effect on the conformation; Survival @ 50 pM NGF (PC12 cells [3]; 100 μM, 50 pM NGF): 15 ± 13 % control; Survival @ 1 nM NGF (PC12 cells [3]; 100 μM, 1 nM NGF): 23 ± 10 % control
